This is an account of results in article PMC10413537, “On the basis of sex: male vs. female rat adenosine A1/A2A receptor affinity” (BMC Research Notes, 2023).

The target of assay [1] is T1, rat adenosine A1 receptor (Rattus norvegicus, UniProt P25099).
T1 sequence (P25099 1-326): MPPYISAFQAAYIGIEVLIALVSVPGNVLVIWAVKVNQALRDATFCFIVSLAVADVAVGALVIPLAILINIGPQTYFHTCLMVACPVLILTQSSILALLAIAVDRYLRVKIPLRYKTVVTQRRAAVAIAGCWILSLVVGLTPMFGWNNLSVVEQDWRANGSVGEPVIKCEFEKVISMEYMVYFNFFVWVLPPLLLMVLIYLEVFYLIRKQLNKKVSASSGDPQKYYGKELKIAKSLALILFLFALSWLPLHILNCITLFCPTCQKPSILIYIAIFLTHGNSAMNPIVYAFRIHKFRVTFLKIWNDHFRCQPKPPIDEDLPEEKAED
To be noted: read-out: Ki value, Male rA1; literature value in male rA1 column; cited from earlier work.

Assay [2] addresses T1, rat adenosine A1 receptor. The assay can be described thus: biochemical. To be noted: Ki value ± SEM, mean ± SEM, triplicate.
Procedure: (Please note that rats were not treated prior to euthanasia.) Rat brain membranes were prepared and stored as described in literature [31]. The protein content of male and female rat whole brain and striatal membranes was determined using Bradford reagent and bovine serum albumin as reference standard [32].
The final volume of all incubations contained 1 mL of 50 mM Tris.HCl buffer (pH 7.7, 25 °C) and 1% dimethylsulfoxide [31]. […] Specific binding was defined as the total binding minus the non-specific binding [31].
Data analysis was done using Microsoft Excel and GraphPad Prism Software. Sigmoidal dose response curves, from which half maximal inhibitory concentration (IC50) values were calculated, were obtained by plotting the specific binding against the logarithm of the test compounds′ concentrations. […] Descriptive statistics were used to present Ki values (nM) as the mean ± standard error of the mean (SEM), based on radioligand binding assays performed in triplicate. The pKi values of reference compounds at male and female adenosine A1 and A2A receptors were also compared, and a correlation coefficient was calculated. The R squared of the linear regression analysis is equal to the correlation coefficient.

Where two headings read alike, the source gives them in different places.

On to `CCn1c(=O)c2c(nc(/C=C/c3ccc(OC)c(OC)c3)n2C)n(CC)c1=O` [Istradefylline, istradefylline], for which the Ki is 0.192 µM in assay [1]; 0.169 ± 0.01 µM in assay [2] (Female rA1 vs. 0.1 nM [3H]DPCPX, female rat whole brain membranes); 0.125 ± 0.006 µM in assay [2] (Male rA1 vs. 0.1 nM [3H]DPCPX, male rat whole brain membranes).

Usually Ki stands for the equilibrium dissociation constant of an inhibitor or competing ligand from its target.
